# Results: US11293001B2, “Microfluidic cell culture systems” (9493662 Canada Inc., priority 2013, dated 2022)
# Experiments:
# [1] = system: hippocampal and DRG axons; assay: Axonal elastic modulus by AFM nano-indentation (modified Hertz model); assay type: cell-based, rat
# Procedure: (§1) To minimize remodeling and maintain the parallel organization of the axons in the cultures, DRG neurons were cultured at a density four-times lower than hippocampal neurons and were tested within 7-10 days in culture, whereas hippocampal axons were tested after 14-18 days in culture.
# Simultaneous compression and live imaging of single axons were performed on a Bioscope AFM mounted on an inverted optical microscope using a 100× objective (1.45 NA) and 1K charge-coupled device camera. Two different compression experiments were performed. In the first, a 20-mm polystyrene bead was fixed, see Reference [8], to the tip of silicon nitride probes with a nominal spring constant of k=0.01 N/m and used to compress axons with controlled force ranging from 0.1 nN≤F≤4 nN for different time periods. In the second, tipless n-type silicon probes with nominal spring constant of k=0.03 N/m were used to apply constant force to axons. […]
# Modeling the underlying glass plane as a sphere with an infinite radius, then the term accounting for the deformation induced by the plane is negligible. Using the method of Reference [13] the δBead-Cylinder can be calculated using Equation (2) where γ is the Poisson ratio of the axon or the bead, E is the Young's modulus of the material, F is the total force applied, e is the eccentricity of the ellipse of contact, and K and
# [2] = system: DRG and hippocampal axons; assay: Immunocytochemistry: distribution of cytosolic components in axons with impaired transport; assay type: cell-based, rat
# Procedure: as §1
# Immunocytochemistry was performed as described in Reference [8] with mouse anti-tubulin, rabbit anti neurofilament, rabbit polyclonal anti-Tom20 (mitochondrial preprotein translocases of the outer membrane FL-145); and Alexa Fluor™ 488 conjugated phalloidin. The secondary antibodies used were Rhodamine Red antimouse IgG and Alexa Fluor™ 647 anti-rabbit IgG. Samples were imaged using a laser scanning confocal microscope with a 60× PlanApo oilimmersion objective on an inverted microscope.
# To investigate the reason for the higher resistance of DRG axons to compression and to vinblastine effects, the inventors investigated the composition and distribution of cytosolic components in axons with impaired transport. […] The inventors analyzed the distribution of mitochondria, actin, neurofilament, and tubulin after blockade of axonal transport.
# [3] = 1 hour treatment, FIG. 4C insert
# [4] = increasing vinblastine concentrations, 1 hour
# [5] = vinblastine 5 nM or 500 nM for 1 hour, fixed, AFM
# [6] = increasing vinblastine concentration
substance,measurement,setting,value
vinblastine sulfate salt,vinblastine concentration at which the volume of the non-FAS segment decreased,DRG axons; [3],500 nM
same,volume of single FAS,DRG axons; [4],increased with increasing vinblastine concentrations
same,number and size of FAS (focal axonal swelling),DRG axons; [5],increased with increasing vinblastine concentrations
same,average elastic modulus at 30% of indentation (EM30%),"[1]; 5 nM vinblastine, p<0.001",significantly decreased
same,slope of the elastic modulus curve as a function of percentage indentation,[1]; [6],decreased proportionally with increasing vinblastine concentration
same,tubulin and neurofilament aggregation at FAS,[2]; [6],proportional increase
same,distribution of actin,[2]; vinblastine-treated axons,concentrated between FAS
same,distribution of mitochondria,[2]; vinblastine-treated axons,changed from uniform to a discontinuous punctate pattern
same,neurofilaments and microtubules,[2]; vinblastine-treated axons,collapsed and accumulated at FAS
same,vinblastine concentration at which the volume of the non-FAS segment decreased,hippocampal axons; [3],5 nM
same,volume of single FAS,hippocampal axons; [4],did not significantly change
same,number and size of FAS (focal axonal swelling),hippocampal axons; [5],increased with increasing vinblastine concentrations
